This test concerns mdx−/− mice. The test is described as follows: Diaphragm muscle force measurement after treating mdx−/− mice with peptides comprising NEMO binding domains (Example 3). Format: in vivo. As to conditions: for treated mice in which force output was higher: diaphragm muscle. As to the method: In this Example, three week old male mdx−/− mice were treated with various peptides comprising NEMO binding domains. The diaphragm muscles of the mice were then evaluated to determine the ability of the peptides to treat muscle wasting in the mdx mice.
Three week old mdx−/− mice were treated by intraperitoneal injections with 200 μg of either a wild type peptide (SEQ ID NO 19) comprising a NEMO binding domain or a mutant peptide (SEQ ID NO 20). The mice were injected every three days for a total trial period of 27 days. After 27 days, the mice were sacrificed and the diaphragm muscles were removed.
The diaphragm muscles were placed in a chamber filled with Ringer solution and perfused continuously with an O2/CO2 mixture. The muscles were then attached using a steel hook to a force transducer and subsequently stimulated at varying frequencies. At each frequency, forces were allowed to reach a steady state before the data was recorded.

Where [1] appears, read: three week old male mdx−/− mice, 200 μg intraperitoneal every three days for 27 days, FIG. 5.

In the case of “mutant peptide: mutant peptide (SEQ ID NO 20) used as comparator to the wild type NEMO binding domain peptide (TALDASALQTE; NBD mutants) [reference compound]”, under setting [1], the “treated mice in which force output was higher” value is recorded as “one of the three”.
For “wild type peptide: wild type peptide (SEQ ID NO 19) comprising a NEMO binding domain (TALDWSWLQTE; NBD mutants)”, the “effect on dystrophic phenotype in affected mice” value (injection, summary statement on Example 3) is given as “inhibit the dystrophic phenotype”. Also, the “treated mice in which force output was higher” value under setting [1] is reported as “three of the four”. For the setting “three week old male mdx−/− mice, 200 μg intraperitoneal every three days for 27 days, excised diaphragm in Ringer solution, compared to mutant peptide, FIG. 5”, the “tetanic contractions (force) of diaphragm muscles at various stimulation frequencies” value is reported as “generally higher tentanic contractions”.

The values are drawn from patent publication US9173920B2, “Methods of treating muscular wasting diseases using NF-KB activation inhibitors” (TheraLogics, Inc., priority 2006, dated 2015).
